US8119692B2 (priority 2007, dated 2012)

Each molecule was assayed against Lethal factor protease (Bacillus anthracis, UniProt P15917) (assay: biochemical). Settings: LF (FRET) Ki^app.
Chain of Lethal factor protease (P15917 34-809 limits assumed): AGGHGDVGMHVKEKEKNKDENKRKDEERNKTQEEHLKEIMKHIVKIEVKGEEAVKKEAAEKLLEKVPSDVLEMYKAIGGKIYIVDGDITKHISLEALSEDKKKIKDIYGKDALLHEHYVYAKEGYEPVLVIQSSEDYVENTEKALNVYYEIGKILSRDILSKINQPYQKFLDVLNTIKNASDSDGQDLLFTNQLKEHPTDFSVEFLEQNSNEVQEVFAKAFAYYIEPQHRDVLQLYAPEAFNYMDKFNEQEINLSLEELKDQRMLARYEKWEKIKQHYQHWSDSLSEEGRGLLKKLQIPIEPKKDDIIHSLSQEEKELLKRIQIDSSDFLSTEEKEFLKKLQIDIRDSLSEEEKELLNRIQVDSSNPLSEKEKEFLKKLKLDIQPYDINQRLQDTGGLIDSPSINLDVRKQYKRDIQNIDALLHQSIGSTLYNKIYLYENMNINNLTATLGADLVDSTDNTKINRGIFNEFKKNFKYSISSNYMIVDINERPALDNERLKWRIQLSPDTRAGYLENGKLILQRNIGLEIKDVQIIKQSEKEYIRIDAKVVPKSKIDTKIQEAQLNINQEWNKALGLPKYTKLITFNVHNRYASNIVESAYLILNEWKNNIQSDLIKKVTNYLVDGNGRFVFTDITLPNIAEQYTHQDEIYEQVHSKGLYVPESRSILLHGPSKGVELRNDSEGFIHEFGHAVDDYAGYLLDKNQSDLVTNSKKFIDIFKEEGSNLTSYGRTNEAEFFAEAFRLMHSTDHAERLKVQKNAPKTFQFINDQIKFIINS
`CO[C@H](C[C@H](CCN(Cc1ccccc1)Cc1ccccc1)C(=O)NO)c1ccc(F)cc1` [Compound 167996, (2S,4R)-2-(2-(dibenzylamino)ethyl)-4-(4-fluorophenyl)-N-hydroxy-4-methoxybutanamide] gave a Ki of 33.4 µM.
In the case of `CO[C@H](C[C@H](CCN(C)Cc1cccc(Br)c1)C(=O)NO)c1ccc(F)cc1` [Compound 168001, (2S,4R)-2-(2-((3-bromobenzyl)(methyl)amino)ethyl)-4-(4-fluorophenyl)-N-hydroxy-4-methoxybutanamide], the Ki is reported as 1.2 µM.
`CO[C@H](C[C@H](CCN(C)CCc1ccccc1)C(=O)NO)c1ccc(F)cc1` [Compound 167952, (2S,4R)-4-(4-fluorophenyl)-N-hydroxy-4-methoxy-2-(2-(methyl(phenethyl)amino)ethyl)butanamide] showed a Ki of 0.77 µM.
`CO[C@H](C[C@H](CCCCNCc1ccc(Oc2ccccc2)cc1)C(=O)NO)c1ccc(F)cc1` [Compound 168224, (S)-2-((R)-2-(4-fluorophenyl)-2-methoxyethyl)-N-hydroxy-6-(4-phenoxybenzylamino)hexanamide] was tested, and the Ki was 0.23 µM.
Molecule `CO[C@H](C[C@H](CC1CC1)C(=O)NO)c1ccc(F)cc1` [Compound 167433, (2S,4R)-2-(cyclopropylmethyl)-4-(4-fluorophenyl)-N-hydroxy-4-methoxybutanamide] has a Ki of 1.4 µM.
`CO[C@H](C[C@H](CCN(C)C/C=C/c1ccccc1)C(=O)NO)c1ccc(F)cc1` [Compound 168017, (2S,4R)-2-(2-(cinnamyl(methyl)amino)ethyl)-4-(4-fluorophenyl)-N-hydroxy-4-methoxybutanamide] showed a Ki of 0.52 µM.
Work on `CO[C@H](C[C@H](CCN1CCC[C@@H](CO)C1)C(=O)NO)c1ccc(F)cc1` [Compound 168059, (2S,4R)-4-(4-fluorophenyl)-N-hydroxy-2-(2-((R)-3-(hydroxymethyl)piperidin-1-yl)ethyl)-4-methoxybutanamide] yielded a Ki of 0.6 µM.
Work on `C=CC[C@@H](C[C@@H](OC)c1ccc(F)c(C)c1)C(=O)NO` [Compound 167673, (S)-2-((R)-2-(4-Fluoro-3-methylphenyl)-2-methoxyethyl)-N-hydroxypent-4-enamide] yielded a Ki of 6.6 µM.
Molecule `CO[C@H](C[C@H](CCN1CCc2ccccc2C1)C(=O)NO)c1ccc(F)cc1` [Compound 167891, (2S,4R)-2-(2-(3,4-dihydroisoquinolin-2(1H)-yl)ethyl)-4-(4-fluorophenyl)-N-hydroxy-4-methoxybutanamide] has a Ki of 0.92 µM.
With `CO[C@H](C[C@H](CCN(C)c1cccc(-c2ccc(F)c(C)c2)c1)C(=O)NO)c1ccc(F)cc1` [Compound 168007, (2S,4R)-2-(2-((4′-fluoro-3′-methylbiphenyl-3-yl)(methyl)amino)ethyl)-4-(4-fluorophenyl)-N-hydroxy-4-methoxybutanamide] the Ki was 19.5 µM.
Molecule `COC(CCC(=O)NO)c1cccc(C(F)(F)F)c1` (stereo not shown) [Compound 167492, N-hydroxy-4-methoxy-4-(3-(trifluoromethyl)phenyl)butanamide] has a Ki of over 300 µM.
Molecule `C=CC[C@H](C[C@@H](OC)c1ccc(F)c(C)c1)C(=O)NO` [Compound 167672, (2R)-2-((2R)-2-(4-fluoro-3-methylphenyl)-2-methoxyethyl)-N-hydroxypent-4-enamide] has a Ki of 42 µM.
`C=CC[C@@H](C[C@@H](OC)c1ccc(F)cc1)C(=O)NO` [Compound 167434, (2S)-2-((2R)-2-(4-fluorophenyl)-2-methoxyethyl)-N-hydroxypent-4-enamide] showed a Ki of 1.16 µM.
`CO[C@H](C[C@H](CCCCN1CCN(Cc2ccccc2)CC1)C(=O)NO)c1ccc(F)cc1` [Compound 168226, (S)-6-(4-benzylpiperazin-1-yl)-2-((R)-2-(4-fluorophenyl)-2-methoxyethyl)-N-hydroxyhexanamide] gave a Ki of 0.58 µM.
`CO[C@H](C[C@H](CCN(C)Cc1ccc(Br)cc1)C(=O)NO)c1ccc(F)cc1` [Compound 168015] gave a Ki of 2.2 µM.
Work on `CCCC[C@@H](C[C@@H](OC)c1ccc(F)cc1)C(=O)NO` [Compound 167336, (S)-2-((R)-2-(4-fluorophenyl)-2-methoxyethyl)-N-hydroxyhexanamide] yielded a Ki of 1.9 µM.
With `COc1ccc(C(CCC(=O)NO)OC)cc1` (stereo not shown) [Compound 167457, N-hydroxy-4-methoxy-4-(4-methoxyphenyl)butanamide] the Ki was 193 µM.
Work on `CO[C@H](C[C@H](CCN1CCCCC1)C(=O)NO)c1ccc(F)cc1` [Compound 167889, (2S,4R)-4-(4-fluorophenyl)-N-hydroxy-4-methoxy-2-(2-(piperidin-1-yl)ethyl)butanamide] yielded a Ki of 1.5 µM.
Molecule `O=C(CCC(O)c1ccc(F)cc1)NO` (racemic) [Compound 166976, 4-(4-fluorophenyl)-N,4-dihydroxybutanamide] has a Ki of 138 µM.
`CO[C@H](C[C@H](CCN1CCN(Cc2ccccc2)CC1)C(=O)NO)c1ccc(F)cc1` [Compound 167962, (2S,4R)-2-(2-(4-benzylpiperazin-1-yl)ethyl)-4-(4-fluorophenyl)-N-hydroxy-4-methoxybutanamide] was tested, and the Ki was 1.9 µM.
With `CCN(CC)CC[C@@H](C[C@@H](OC)c1ccc(F)cc1)C(=O)NO` [Compound 167995, (2S,4R)-2-(2-(diethylamino)ethyl)-4-(4-fluorophenyl)-N-hydroxy-4-methoxybutanamide] the Ki was 2.2 µM.
`CSC(CCC(=O)NO)c1ccc(F)cc1` (racemic) [Compound 167366, 4-(4-Fluoro-phenyl)-N-hydroxy-4-methylsulfanyl-butyramide] showed a Ki of 10.9 µM.
`COC(CC(Cc1ccccc1)C(=O)NO)c1ccc(F)cc1` (stereo not shown) [Compound 167285] showed a Ki of over 300 µM.
Work on `CCC[C@H](C[C@@H](OC)c1ccc(F)c(C)c1)C(=O)NO` [Compound 167674, (2R)-2-((2R)-2-(4-fluoro-3-methylphenyl)-2-methoxyethyl)-N-hydroxypentanamide] yielded a Ki of 24 µM.
`COC(CCC(=O)NO)c1cccc(F)c1` (stereo not shown) [Compound 167456, 4-(3-fluorophenyl)-N-hydroxy-4-methoxybutanamide] showed a Ki of 51.6 µM.
In the case of `CO[C@H](C[C@H](CCN(C)c1cccc(Br)c1)C(=O)NO)c1ccc(F)cc1` [Compound 168000, (2S,4R)-2-(2-((3-bromophenyl)(methyl)amino)ethyl)-4-(4-fluorophenyl)-N-hydroxy-4-methoxybutanamide], the Ki is reported as 2.8 µM.
Molecule `CO[C@H](C[C@H](CCN1CCC[C@@H](CN2CCCCC2)C1)C(=O)NO)c1ccc(F)cc1` [Compound 168045, (2S,4R)-4-(4-fluorophenyl)-N-hydroxy-4-methoxy-2-(2-((S)-3-(piperidin-1-ylmethyl)piperidin-1-yl)ethyl)butanamide] has a Ki of 0.43 µM.
Work on `CO[C@H](C[C@H](C)C(=O)NO)c1ccc(F)cc1` [Compound 167297, (2S,4R)-4-(4-fluorophenyl)-N-hydroxy-4-methoxy-2-methylbutanamide] yielded a Ki of 2.3 µM.
`CO[C@H](C[C@H](CCCCNCc1cccs1)C(=O)NO)c1ccc(F)cc1` [Compound 168223] was tested, and the Ki was 0.21 µM.
For `CO[C@H](C[C@H](CCN1CCN(CCc2ccccc2)CC1)C(=O)NO)c1ccc(F)cc1` [Compound 167958, (2S,4R)-4-(4-fluorophenyl)-N-hydroxy-4-methoxy-2-(2-(4-phenethylpiperazin-1-yl)ethyl)butanamide], the Ki was 2.4 µM.
Molecule `COC(CC(CCc1ccccc1)C(=O)NO)c1ccc(F)cc1` (stereo not shown) [Compound 167308, 4-(4-fluorophenyl)-N-hydroxy-4-methoxy-2-phenethylbutanamide] has a Ki of 2.4 µM.
Work on `CCCC[C@H](C[C@H](OC)c1ccc(F)cc1)C(=O)NO` [Compound 167389, (2R)-2-((2S)-2-(4-fluorophenyl)-2-methoxyethyl)-N-hydroxyhexanamide] yielded a Ki of 75.6 µM.
`COC(CCC(=O)NO)c1ccc(C(F)(F)F)cc1` (stereo not shown) [Compound 167511, N-hydroxy-4-methoxy-4-(4-(trifluoromethyl)phenyl)butanamide] showed a Ki of 240 µM.
`CO[C@H](C[C@H](CCN(C)CCN(C)c1ccccc1)C(=O)NO)c1ccc(F)cc1` [Compound 168058, (2S,4R)-4-(4-fluorophenyl)-N-hydroxy-4-methoxy-2-(2-(methyl(2-(methyl(phenyl)amino)ethyl)amino)ethyl)butanamide] was tested, and the Ki was 0.78 µM.
Work on `CO[C@H](C[C@H](CCN(C)CCOc1ccccc1)C(=O)NO)c1ccc(F)cc1` [Compound 167890, (2S,4R)-4-(4-fluorophenyl)-N-hydroxy-4-methoxy-2-(2-(methyl(2-phenoxyethyl)amino)ethyl)butanamide] yielded a Ki of 1.6 µM.
`CCC[C@@H](C[C@@H](OC)c1ccc(F)c(C)c1)C(=O)NO` [Compound 167675, (2S)-2-((2R)-2-(4-fluoro-3-methylphenyl)-2-methoxyethyl)-N-hydroxypentanamide] showed a Ki of 2.6 µM.
Molecule `CO[C@H](C[C@H](CCN(C)CCO)C(=O)NO)c1ccc(F)cc1` [Compound 167922] has a Ki of 1.49 µM.
`COC(CCC(=O)NO)c1cccc(C)c1C` (stereo not shown) [Compound 167495, 4-(2,3-dimethylphenyl)-N-hydroxy-4-methoxybutanamide] was tested, and the Ki was 269 µM.
`CO[C@H](C[C@H](CCN(C)c1ccccc1)C(=O)NO)c1ccc(F)cc1` [Compound 168028, (2S,4R)-4-(4-fluorophenyl)-N-hydroxy-4-methoxy-2-(2-(methyl(phenyl)amino)ethyl)butanamide] was tested, and the Ki was 1.82 µM.
`CO[C@H](C[C@H](CCCCNCc1ccc(C)o1)C(=O)NO)c1ccc(F)cc1` [Compound 168228, (S)-2-((R)-2-(4-fluorophenyl)-2-methoxyethyl)-N-hydroxy-6-((5-methylfuran-2-yl)methylamino)hexanamide] showed a Ki of 2.8 µM.
For `COC(CC(C)C(=O)NO)c1ccc(F)cc1` (stereo not shown) [Compound 167288, 4-(4-Fluoro-phenyl)-N-hydroxy-4-methoxy-2-methyl-butyramide], the Ki was 3.1 µM.
Molecule `CO[C@H](C[C@H](CCN1CCN(c2ccccc2)CC1)C(=O)NO)c1ccc(F)cc1` [Compound 167986, (2S,4R)-4-(4-fluorophenyl)-N-hydroxy-4-methoxy-2-(2-(4-phenylpiperazin-1-yl)ethyl)butanamide] has a Ki of 2.22 µM.
For `CO[C@H](C[C@H](CCN1CCCC(CO)C1)C(=O)NO)c1ccc(F)cc1` (stereo partly drawn) [Compound 167885, (2S,4R)-4-(4-fluorophenyl)-N-hydroxy-2-(2-(3-(hydroxymethyl)piperidin-1-yl)ethyl)-4-methoxybutanamide], the Ki was 0.76 µM.
